Laboratory results: PMC7024302, “Ultrashort Cationic Lipopeptides–Effect of N-Terminal Amino Acid and Fatty Acid Type on Antimicrobial Activity and Hemolysis” (Molecules, 2020)
Values after ≈ are worked out from the molar mass of the structure shown. Where two headings read alike, the source gives them in different places. Residues, ends and D or L forms follow the SMILES beside them. *: point of attachment. Myristoyl = CCCCCCCCCCCCCC(=O)*; Acm = CC(=O)NC*

Columns and labels:
[1] = tested on: A. baumannii ATCC BAA-1605; format: cell-based, Acinetobacter baumannii; conditions: ATCC BAA-1605, 18 h
Text: (§1) The Acinetobacter baumannii ATCC BAA-1605, Candida albicans ATCC 10231, Enterococcus faecium ATCC 700221, Klebsiella aerogenes ATCC 13048 (previously known as Enterobacter aerogenes), Klebsiella pneumoniae ATCC 700603, Pseudomonas aeruginosa ATCC 9027, Staphylococcus aureus ATCC 25923 and MRSA ATCC 33591, were acquired from the American Type Culture Collection (ATCC). Before running the tests, beads with cryo-protected microorganisms were transferred into fresh MHB (BioMaxima, Lublin, Poland) for bacteria or RPMI-1640 for fungi and incubated for 24 h at 37 °C. Then, the culture was seeded on the Mueller-Hinton agar (MHA) plates (BioMaxima, Lublin, Poland) for bacteria or Sabouraud dextrose agar (SDA) plates (BioMaxima, Lublin, Poland) for fungi and incubated as just mentioned. Cell densities for all assays were adjusted spectrophotometrically (Multiskan™ GO Microplate Spectrophotometer, Thermo Fisher Scientific, Vantaa, Finland) at 600 nm for bacteria and at 530 nm for fungi.
(§2) The MICs were determined by broth microdilution method according to the Clinical and Laboratory Standard Institute guidelines. For this purpose initial inoculums of bacteria (5 × 10^5 CFU/mL) in MHB (BioMaxima, Lublin, Poland) and fungi (2 × 10^3 CFU/mL) in RPMI-1640 with 2% D-glucose (Merck, Darmstadt, Germany) prepared with MOPS (pH 7.0 ± 0.1 at 25 °C; Merck, Darmstadt, Germany) were exposed to the ranging concentration of lipopeptides (0.5–256 µg/mL) and incubated at 37 °C for 18 h and 24 h respectively. The experiments were conducted on 96-well microtiter polystyrene plates (Kartell, Italy). The MIC was taken as the lowest peptide concentration at which a noticeable growth of microorganisms was inhibited. All experiments were conducted in triplicate.

E. faecium ATCC 700221 = format: cell-based, Enterococcus faecium; conditions: ATCC 700221, 18 h
Text: as §1, §2

[2] = tested on: human red blood cells (hRBCs); format: cell-based; conditions: red cells of human, 1 h
Experimental: The hemolysis assay was performed as described earlier according to the method of Avrahami and Shai. Fresh human red blood cells (hRBCs) with anticoagulant (EDTA) were rinsed three times with a PBS (Merck, Darmstadt, Germany) by centrifugation at 800× g for 10 min and resuspended in PBS. Lipopeptides were serially diluted on 96-well microtiter polystyrene plate and hRBCs were added to reach final volume of 100 µL. Peptide concentration ranged between 0.5 and 256 µg/mL and final hRBCs concentration was 4% (v/v). Controls for zero hemolysis (blank) and 100% hemolysis consisted of hRBCs suspended in PBS and 1% of Triton-X 100 (Merck, Darmstadt, Germany), respectively. The plate was incubated for 1 h at 37 °C and then centrifuged (800× g, 10 min, 4 °C). Subsequently, supernatant was […] to new microtiter plates and absorbance at 540 nm were measured. All experiments were conducted in triplicate. Protocol of the study received approval from the local Bioethics Committee at the Medical University of Gdańsk (NKBBN/262/2019).

[3] = Determination of peptide hydrophobicity with RP-HPLC (adjusted retention time); format: physicochemical; conditions: for tR’: Table 3, adjusted retention time as hydrophobicity; for tR’ (adjusted retention time): Table 1 and b9, measure of hydrophobicity, RP-HPLC, Phenomenex Luna C18(2) 3.0 × 100 mm, 5 µm, linear 10–55% acetonitrile in water over 60 min, 0.5 mL/min, peptide 1 g/L; for ∆tR: tR’ of the lipopeptide minus tR’ of C10-RR-NH2 or C12-RR-NH2, same RP-HPLC conditions
Experimental: To determine peptide hydrophobicity, the Waters Alliance e2695 system with a Waters 2998 PDA Detector (software-Empower®3) was used. All analyses were carried out on a Phenomenex Luna C18(2) column (3.0 × 100 mm, 5 µm particle size, 100 Å pore size). The peptides were dissolved in water (0.1% TFA, v/v) to obtain a concentration of 1 g/L. UV detection at 214 nm was used, and aliquots (10 µL) were eluted with a linear 10–55% acetonitrile gradient in deionized water over 60 min at 25.0 ± 0.1 °C. The mobile phase flow rate was 0.5 mL/min. Both eluents contained 0.1% (v/v) of TFA. Each peptide sample was analyzed in triplicate.

P. aeruginosa ATCC 9027 = format: cell-based, Pseudomonas aeruginosa; conditions: ATCC 9027, 18 h
Text: as §1, §2

[4] = tested on: S. aureus ATCC 33591 (MRSA); format: cell-based, Staphylococcus aureus; conditions: ATCC 33591, 18 h
Text: as §1, §2

S. aureus ATCC 25923 = format: cell-based, Staphylococcus aureus; conditions: ATCC 25923, 18 h
Text: as §1, §2

C. albicans ATCC 10231 = format: cell-based, Candida albicans
Text: as §1, §2

K. aerogenes ATCC 13048 = format: cell-based, Klebsiella aerogenes; conditions: ATCC 13048, 18 h
Text: as §1, §2

[5] = tested on: K. pneumoniae ATCC 700603; format: cell-based, Klebsiella pneumoniae; conditions: ATCC 700603, 18 h
Text: as §1, §2

[6] = RP-HPLC C18, linear 10–55% acetonitrile over 60 min, 0.1% TFA, 25.0 °C, UV 214 nm, triplicate
[7] = 0.1% TFA, 25.0 °C, UV 214 nm, triplicate

Compound	MIC A [1]	MIC E1 (E. faecium ATCC 700221)	HC50 [2]	tR’ [3, 6]	MIC PA (P. aeruginosa ATCC 9027)	MIC S [4]	MIC SA (S. aureus ATCC 25923)	MIC CA (C. albicans ATCC 10231; C. albicans ATCC 10231, RPMI-1640 with 2% D-glucose, MOPS pH 7.0, 2 × 10^3 CFU/mL, 0.5–256 µg/mL, 37 °C, 24 h, triplicate)	MIC E2 (K. aerogenes ATCC 13048)	MIC K [5]	MIC CA (C. albicans ATCC 10231; ATCC 10231, 24 h, pH 7)	tR’ (adjusted retention time) [3, 7]	∆tR [3]	Adjusted retention time ([3]; Table 2, nC = carbon atoms in fatty acid chain, RP-HPLC C18, linear 10–55% acetonitrile over 60 min, 0.1% TFA, 25.0 °C, UV 214 nm, triplicate)
CCCCCCCCCCCCCCCC(=O)N[C@@H](CCCNC(=N)N)C(=O)N[C@@H](CCCNC(=N)N)C(N)=O [compound 5, C16-RR-NH2, reference compound] (HELM PEPTIDE1{[CCCCCCCCCCCCCCCC(=O)[*:2]].R.R.[am]}$$$$V2.0)	32 µg/mL (≈ 56.4 µM)	8 µg/mL (≈ 14.1 µM)	22.91 (±1.18) µg/mL	46.51 min	16 µg/mL (≈ 28.2 µM)	8 µg/mL (≈ 14.1 µM)	8 µg/mL (≈ 14.1 µM)	4 µg/mL (≈ 7.04 µM)	32 µg/mL (≈ 56.4 µM)	32 µg/mL (≈ 56.4 µM)	–	–	–	–
CCCCCCCCCCCCCCCCCC(=O)N[C@@H](CCCNC(=N)N)C(=O)N[C@@H](CCCNC(=N)N)C(N)=O [compound 6, C18-RR-NH2, reference compound] (HELM PEPTIDE1{[CCCCCCCCCCCCCCCCCC(=O)[*:2]].R.R.[am]}$$$$V2.0)	32 µg/mL (≈ 53.7 µM)	8 µg/mL (≈ 13.4 µM)	25.19 (±0.67) µg/mL	53.39 min	64 µg/mL (≈ 107 µM)	16 µg/mL (≈ 26.9 µM)	16 µg/mL (≈ 26.9 µM)	–	16 µg/mL (≈ 26.9 µM)	16 µg/mL (≈ 26.9 µM)	4 µg/mL (≈ 6.71 µM)	–	–	–
CCCCCCCCCCCCCC(=O)N[C@@H](C)C(=O)N[C@@H](CCCNC(=N)N)C(=O)N[C@@H](CCCNC(=N)N)C(N)=O [compound 10, C14-ARR-NH2] (HELM PEPTIDE1{[CCCCCCCCCCCCCC(=O)[*:2]].A.R.R.[am]}$$$$V2.0)	32 µg/mL (≈ 52.4 µM)	8 µg/mL (≈ 13.1 µM)	41.08 (±0.62) µg/mL	40.92 min	32 µg/mL (≈ 52.4 µM)	16 µg/mL (≈ 26.2 µM)	8 µg/mL (≈ 13.1 µM)	–	256 µg/mL (≈ 419 µM)	256 µg/mL (≈ 419 µM)	16 µg/mL (≈ 26.2 µM)	–	–	–
CCCCCCCCCCCCCC(=O)N[C@@H](CSCNC(C)=O)C(=O)N[C@@H](CCCNC(=N)N)C(=O)N[C@@H](CCCNC(=N)N)C(N)=O [compound 14, C14-C(Acm)RR-NH2] (Myristoyl-Cys(Acm)-Arg-Arg-NH2)	16 µg/mL (≈ 22.4 µM)	8 µg/mL (≈ 11.2 µM)	39.72 (±1.25) µg/mL	43.24 min	16 µg/mL (≈ 22.4 µM)	16 µg/mL (≈ 22.4 µM)	16 µg/mL (≈ 22.4 µM)	–	256 µg/mL (≈ 359 µM)	256 µg/mL (≈ 359 µM)	8 µg/mL (≈ 11.2 µM)	–	–	–
CCCCCCCCCC(=O)N[C@@H](Cc1ccccc1)C(=O)N[C@@H](CCCNC(=N)N)C(=O)N[C@@H](CCCNC(=N)N)C(N)=O [compound 24, C10-FRR-NH2] (HELM PEPTIDE1{[CCCCCCCCCC(=O)[*:2]].F.R.R.[am]}$$$$V2.0)	64 µg/mL (≈ 101 µM)	32 µg/mL (≈ 50.7 µM)	>256 µg/mL	34.68 min	32 µg/mL (≈ 50.7 µM)	16 (>16) µg/mL	16 (>16) µg/mL	–	>256 (-) µg/mL	>256 (-) µg/mL	64 µg/mL (≈ 101 µM)	34.68 min	10.38 min	–
CCCCCCCCCCCC(=O)N[C@@H](Cc1ccccc1)C(=O)N[C@@H](CCCNC(=N)N)C(=O)N[C@@H](CCCNC(=N)N)C(N)=O [compound 25, C12-FRR-NH2] (HELM PEPTIDE1{[CCCCCCCCCCCC(=O)[*:2]].F.R.R.[am]}$$$$V2.0)	64 µg/mL (≈ 97.1 µM)	8 µg/mL (≈ 12.1 µM)	91.21 (±16.38) µg/mL	41.45 min	8 µg/mL (≈ 12.1 µM)	8 µg/mL (≈ 12.1 µM)	4 µg/mL (≈ 6.07 µM)	–	256 µg/mL (≈ 389 µM)	256 µg/mL (≈ 389 µM)	8 µg/mL (≈ 12.1 µM)	41.45 min	8.87 min	–
CCCCCCCCCCCCCC(=O)N[C@@H](Cc1ccccc1)C(=O)N[C@@H](CCCNC(=N)N)C(=O)N[C@@H](CCCNC(=N)N)C(N)=O [compound 26, C14-FRR-NH2] (HELM PEPTIDE1{[CCCCCCCCCCCCCC(=O)[*:2]].F.R.R.[am]}$$$$V2.0)	128 µg/mL (≈ 186 µM)	16 µg/mL (≈ 23.3 µM)	39.09 (±1.18) µg/mL	47.75 min	8 µg/mL (≈ 11.6 µM)	32 µg/mL (≈ 46.6 µM)	4 µg/mL (≈ 5.82 µM)	–	64 µg/mL (≈ 93.2 µM)	64 µg/mL (≈ 93.2 µM)	2 µg/mL (≈ 2.91 µM)	–	–	–
CCCCCCCCCCCCCC(=O)NCC(=O)N[C@@H](CCCNC(=N)N)C(=O)N[C@@H](CCCNC(=N)N)C(N)=O [compound 30, C14-GRR-NH2]	64 µg/mL (≈ 107 µM)	8 µg/mL (≈ 13.4 µM)	31.94 (±1.99) µg/mL	40.53 min	32 µg/mL (≈ 53.6 µM)	8 µg/mL (≈ 13.4 µM)	8 µg/mL (≈ 13.4 µM)	–	256 µg/mL (≈ 429 µM)	256 µg/mL (≈ 429 µM)	16 µg/mL (≈ 26.8 µM)	–	–	–
CCCCCCCCCCCCCC(=O)N[C@@H](Cc1c[nH]cn1)C(=O)N[C@@H](CCCNC(=N)N)C(=O)N[C@@H](CCCNC(=N)N)C(N)=O [compound 34, C14-HRR-NH2] (HELM PEPTIDE1{[CCCCCCCCCCCCCC(=O)[*:2]].H.R.R.[am]}$$$$V2.0)	128 µg/mL (≈ 189 µM)	8 µg/mL (≈ 11.8 µM)	50.31 (±0.52) µg/mL	35.80 min	64 µg/mL (≈ 94.5 µM)	16 µg/mL (≈ 23.6 µM)	16 µg/mL (≈ 23.6 µM)	–	256 µg/mL (≈ 378 µM)	256 µg/mL (≈ 378 µM)	16 µg/mL (≈ 23.6 µM)	–	–	–
CCCCCCCCCCCC(=O)N[C@H](C(=O)N[C@@H](CCCNC(=N)N)C(=O)N[C@@H](CCCNC(=N)N)C(N)=O)[C@@H](C)CC [compound 37, C12-IRR-NH2] (HELM PEPTIDE1{[CCCCCCCCCCCC(=O)[*:2]].I.R.R.[am]}$$$$V2.0)	64 µg/mL (≈ 102 µM)	8 µg/mL (≈ 12.8 µM)	120.40 (±1.55) µg/mL	39.05 min	16 µg/mL (≈ 25.6 µM)	8 µg/mL (≈ 12.8 µM)	8 µg/mL (≈ 12.8 µM)	–	256 µg/mL (≈ 410 µM)	256 µg/mL (≈ 410 µM)	16 µg/mL (≈ 25.6 µM)	–	–	39.047 min
